The values below are quoted from earlier work in the CATMoS acute toxicity set (Mansouri et al. 2021).

Where “and” joins values, the source holds several entries; their conditions need not be identical. Equal entries are not always repeated.

The series can be described thus: rat acute oral toxicity. The conditions noted are these: in vivo.
`CN1C(C(=O)Nc2ccccn2)=C(OC(=O)C(C)(C)C)c2sc(Cl)cc2S1(=O)=O`: the LD50 was 24.6 mg/kg.

Regarding `CC(C)(C)NCC(O)CSc1nc(-c2ccc(C(N)=O)s2)cs1` (stereo not drawn), the 50% lethal dose (LD50) is 86 mg/kg.

Turning to `CCCCCc1ccccc1O`, the 50% lethal dose (LD50) is 700 mg/kg.

As to `CC1(CCO)CCOCO1` (stereo not drawn), the LD50 is 8800 mg/kg.

`CCCOCCOC(C)=O`: the 50% lethal dose (LD50) was 9460 mg/kg.

With `CCCC(=O)C(CC)Cc1ccccc1` (stereo not drawn), the 50% lethal dose (LD50) was 4400 mg/kg.

Turning to `CS(=O)(=O)c1ccc(-c2cn3ccccc3n2)cc1`, the LD50 is 3710 mg/kg.

As for `CC(=O)OC(C)(C)C1CC=C(C)CC1` (stereo not drawn), the LD50 was 5080 mg/kg.

On to `CCCCCCCOCCO`, for which the LD50 was 2280 mg/kg.

For the molecule `COc1ccccc1OCCOC(=O)c1ccccc1OC(C)=O`, the median lethal dose (LD50) was 2930 mg/kg.

For `C=CCCC(=O)O`, the LD50 was 470 mg/kg.

In the case of `CCCCN(CC)c1c([N+](=O)[O-])cc(C(F)(F)F)cc1[N+](=O)[O-]`, the LD50 is 10000 mg/kg.

Turning to `C1CNCCNC1`, the LD50 was 2830 mg/kg.

As to `COP(=O)(OC)C(OC(C)=O)=C(Cl)Cl`, the 50% lethal dose (LD50) is 300 mg/kg.

Regarding `O=C(O)Cc1ccc2c(c1)OCc1ccccc1C2=O`, the median lethal dose (LD50) is 110 mg/kg.

In the case of `CC(C)=CCC1C(=O)N(c2ccccc2)N(c2ccccc2)C1=O`, the 50% lethal dose (LD50) was 1340 mg/kg.

For the molecule `CC(=O)C(Cl)C(=O)OC(C)c1ccccc1` (stereo not drawn), the LD50 is 880 mg/kg.

Consider `CCCCC(CC)COC(=O)C=CC(=O)OCC(CC)CCCC` (stereo not drawn), for which the median lethal dose (LD50) was 29200 mg/kg and 14000 mg/kg.

`CCCCC(CC)COC(=O)CS` (stereo not drawn): the 50% lethal dose (LD50) was 303 mg/kg.

With `O=C(CCCN1CCC2(CCCCC2)CC1)c1ccc(F)cc1`, the 50% lethal dose (LD50) is 200 mg/kg.

`CN(CCO)c1ccccc1`: the 50% lethal dose (LD50) was 2830 mg/kg.

As to `O=C(O)c1ccccc1-c1ccccc1CO`, the LD50 is 6500 mg/kg.

On to `N[C@@H](Cc1ccc(O)c(O)c1)C(=O)O`, for which the LD50 is 1780 mg/kg.

Consider `CN(C)CCCC1c2ccccc2Nc2ccc(Cl)cc21` (stereo not drawn), for which the LD50 is 379 mg/kg.

For the molecule `CN(C)c1ccc(N=Nc2cccc(C(=O)O)c2)cc1`, the 50% lethal dose (LD50) is 3760 mg/kg.

`CN1C(=O)CCS(=O)(=O)C1c1ccc(Cl)cc1` (stereo not drawn): the LD50 was 605 mg/kg.

Take `Cc1c(COC(=O)[C@@H]2[C@H](/C=C(\Cl)C(F)(F)F)C2(C)C)cccc1-c1ccccc1` (racemic): the LD50 is 54.5 mg/kg.

`Clc1cccc2ccccc12`: the LD50 is 2200 mg/kg and 1540 mg/kg.

As to `Cn1c2c(c(=O)n1-c1ccccc1)CCCC2`, the LD50 is 1500 mg/kg.

As to `C=CCOC(=O)CC1CCCCC1`, the median lethal dose (LD50) was 900 mg/kg.

Consider `CN(C)c1ncnc2c1ncn2CC1CC1`, for which the LD50 was 570 mg/kg.

As to `CC(=O)C1(O)CCC(c2ccccc2)CC1` (stereo not drawn), the median lethal dose (LD50) is 8000 mg/kg.

Take `O=S1c2ccccc2N(CCCN2CCN(CCO)CC2)c2cc(Cl)ccc21` (stereo not drawn): the LD50 is 1000 mg/kg.

As to `CCCCCCC=NO`, the LD50 is 1040 mg/kg.

`COP(=S)(OC)SC(C(=O)OC(C)C)c1ccccc1` (stereo not drawn): the median lethal dose (LD50) was 205 mg/kg.

For `CC(CN(CCN(CC(C)OB(O)O)CC(C)OB(O)O)CC(C)OB(O)O)OB(O)O` (stereo not drawn), the LD50 was 4930 mg/kg.

As to `CNC(=O)Oc1cccc2c(O)cccc12`, the median lethal dose (LD50) is 297 mg/kg.

Turning to `CC(C)N(C)C`, the LD50 is 684 mg/kg.

Turning to `COP(=S)(OC)SCSc1ccc(Cl)c(Cl)c1`, the median lethal dose (LD50) was 220 mg/kg.

As for `CCOP(=S)(OCC)SCC(=O)NC(C)C`, the 50% lethal dose (LD50) was 8 mg/kg.

`CCCC1C(=O)N(c2ccccc2)N(c2ccccc2)C1=O`: the median lethal dose (LD50) was 529 mg/kg.

Regarding `CCCCCCCCCCCCCN1CC(C)OC(C)C1` (stereo not drawn), the LD50 is 650 mg/kg.

On to `CC(C)NCC(O)COc1ccc(CCOCC2CC2)cc1` (stereo not drawn), for which the LD50 is 998 mg/kg.

For `NC[C@H]1CC[C@H](C(=O)Oc2ccc(CCC(=O)O)cc2)CC1`, the LD50 was 1500 mg/kg.

On to `O=C(O)CC(O)c1ccc(-c2ccc(Cl)cc2)o1` (stereo not drawn), for which the 50% lethal dose (LD50) is 2460 mg/kg.

In the case of `CCOC1CC(C)C=CO1` (stereo not drawn), the 50% lethal dose (LD50) is 3400 mg/kg.

With `c1ccc(-c2nnco2)cc1`, the 50% lethal dose (LD50) was 440 mg/kg.

For `CCc1cccc2c3c([nH]c12)C(CC)(CC(=O)O)OCC3` (stereo not drawn), the 50% lethal dose (LD50) is 94 mg/kg.

`CCOP(=S)(OC(C)C)ON1C(=O)c2ccccc2C1=O` (stereo not drawn): the LD50 was 250 mg/kg.

With `N#CCC(N)=O`, the median lethal dose (LD50) was 3200 mg/kg.

With `c1coc(COCc2ccco2)c1`, the median lethal dose (LD50) is 210 mg/kg.

On to `CC(Cl)(CCl)C(=O)O` (stereo not drawn), for which the 50% lethal dose (LD50) was 8000 mg/kg.

On to `COc1cc(CCC(C)=O)ccc1O`, for which the LD50 was 2580 mg/kg.

In the case of `CC(C)C(=O)OCc1ccccc1`, the LD50 was 2850 mg/kg.

As to `COc1ccc(C=C2C(=O)N=C3c4ccccc4N=CN23)cc1`, the 50% lethal dose (LD50) is 258 mg/kg.

As to `COc1ccc(CC(=O)O)cc1`, the LD50 was 1550 mg/kg.

Take `C[N+]1(CCC(C2=CCCCC2)c2ccccc2)CCCCC1` (stereo not drawn): the LD50 is 1700 mg/kg.

As for `CCCCCCCCCC(=O)OC1(c2ccc(Cl)cc2)CCN(CCCC(=O)c2ccc(F)cc2)CC1`, the LD50 was 1720 mg/kg.

With `COc1ccc2c(c1)c(CC(=O)NO)c(C)n2C(=O)c1ccc(Cl)cc1`, the LD50 is 78 mg/kg.

Regarding `CNC(=O)Nc1c(OCCN2CCCC2)c(OC)c2occc2c1OC`, the LD50 is 1050 mg/kg.

Consider `Cc1ccccc1O`, for which the 50% lethal dose (LD50) is 1860 mg/kg.

Take `CC/C=C\CCOCC=O`: the LD50 is 4100 mg/kg.

On to `OCCC1CCCCC1`, for which the LD50 was 940 mg/kg.
